Measured values published in publication PMC11480511 (Scientific Reports, 2024).
Converted amounts (≈) assume the structure as drawn. Where two headings read alike, the source gives them in different places.

Columns and labels:
[1] = test system: MCF-7 breast adenocarcinoma cell line; set-up: method as in PMID 24287557; details: cited from earlier work
[2] = test system: MDA-MB-231 breast adenocarcinoma; set-up: method as in PMID 24287557; details: cited from earlier work
topoisomerase Iα = molecular target: T1, topoisomerase Iα (Homo sapiens, UniProt P11387); assay: Topoisomerase I inhibition, human DNA topoisomerase Elisa kit; assay type: biochemical; details: ± SEM
T1 construct: purchased
T1 sequence (P11387 1-765): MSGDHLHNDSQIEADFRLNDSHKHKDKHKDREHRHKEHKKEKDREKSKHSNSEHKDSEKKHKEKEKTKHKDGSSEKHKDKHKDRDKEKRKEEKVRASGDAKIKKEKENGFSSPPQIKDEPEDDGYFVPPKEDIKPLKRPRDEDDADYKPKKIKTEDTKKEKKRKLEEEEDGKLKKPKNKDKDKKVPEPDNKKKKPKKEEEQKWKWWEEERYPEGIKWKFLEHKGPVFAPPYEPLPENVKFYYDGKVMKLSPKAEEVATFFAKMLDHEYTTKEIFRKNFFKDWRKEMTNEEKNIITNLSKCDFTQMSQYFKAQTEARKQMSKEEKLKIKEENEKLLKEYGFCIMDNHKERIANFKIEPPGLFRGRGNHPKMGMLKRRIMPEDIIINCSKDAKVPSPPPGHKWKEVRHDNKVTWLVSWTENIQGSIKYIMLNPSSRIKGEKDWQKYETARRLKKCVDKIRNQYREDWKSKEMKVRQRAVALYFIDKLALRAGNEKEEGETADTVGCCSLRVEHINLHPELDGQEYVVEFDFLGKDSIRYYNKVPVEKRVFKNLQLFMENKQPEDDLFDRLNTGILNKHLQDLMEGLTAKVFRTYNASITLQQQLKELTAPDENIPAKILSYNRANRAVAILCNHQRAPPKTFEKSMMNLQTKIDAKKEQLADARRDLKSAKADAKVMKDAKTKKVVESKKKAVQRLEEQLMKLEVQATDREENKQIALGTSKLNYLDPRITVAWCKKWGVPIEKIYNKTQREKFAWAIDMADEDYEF
Method: (§1) Two folds of serial dilution was accomplished after standards and the tested compounds were dissolved in sample diluent. Horseradish peroxidase (HRP-avidin) and biotin-conjugated antibody were diluted 10 times each. Each well received 100 µL of each concentration of the standard or test chemicals, which were then added and incubated at 37 °C for 60 min. […] The microtiter plate was rinsed three times and given room to aspirate. After that, the plate was incubated at 37 °C for 60 min with 100 µL of HRP-avidin solution added to each well. After that, the plate was aspirated and cleaned 5 times. Each well received 90 µL of TMB substrate, and the plate was incubated for 30 min. at 37 °C in a light-protected environment. Finally, stop solution (50 µL) was loaded, and within 5 min, the absorbance at 450 nm was measured spectrophotometrically.
(§2) Topoisomerase enzyme assay
(§3) Topoisomerase I and II inhibitory activity […]
(§4) topoisomerase IIβ inhibitory activity utilizing the human DNA topoisomerase Elisa kit.
(§5) Standards and the tested compound were dissolved in sample diluent and 2 folds serial dilution was achieved. Biotin-conjugated antibody and avidin conjugated Horseradish Peroxidase (HRP-avidin) were diluted to 10 folds. 100 μL of each concentration of standard or test compound were added to each well. Incubate at 37 °C for 1 h. The liquid in each well was removed. 10 0 μL of Biotin-conjugated antibody solution was added to each well followed by incubation for 1 h at 37 °C. The microtiter plate was allowed to aspirate and washed 3 times. 100 μL of avidin conjugated Horseradish Peroxidase (HRP -avidin) solution was added to each well and the plate was incubated for 1 h at 37 °C. The plate was aspirated and washed 5 times. 90 μL of TMB substrate were added to each well and the plate was incubated for 30 min at 37 °C and protected from light. 50 μL stop so lution was added. The absorbance was measured spectrophotometrically within 5 min at 450 nm .

topoisomerase IIβ = molecular target: T2, topoisomerase IIβ (Homo sapiens, UniProt Q02880); assay: Topoisomerase II inhibition, human DNA topoisomerase Elisa kit; assay type: biochemical
T2 construct: purchased
Method: as §1, §2, §3, §4, §5

human melanoma LOX IMVI [3] = details: read-out: In vitro cytotoxicity (IC50) LOX IMVI (µM ± SEM), MTT assay
[4] = test system: A498 renal cancer cell line; details: read-out: In vitro cytotoxicity (IC50) A498 cell line (µM ± SEM), A498, MTT assay
[5] = test system: MDA-MB-231 triple negative breast cancer cell line; set-up: method as in earlier work; details: cited from earlier work
S. aureus ATCC 6538 = assay: Antibacterial screening, agar cup diffusion method; assay type: cell-based; details: Staphylococcus aureus, ATCC6538; Gram + ve strain; read-out: Minimum inhibitory concentrations (MIC, µM) S. aureus ATCC 6538
Method: (§7) Anti-bacterial activity of the recently synthesized compounds 3a-k was evaluated at AUMC (Assiut University Mycological Centre), Assiut, Egypt. Assays were done against Gram-negative strains of K. pneumoniae (ATCC 100310, E. coli (ATCC 25922), Pseudomonas aeruginosa (ATCC 27853) and the Gram-positive S. aureus (ATCC 6538) strain utilizing standard agar cup diffusion method. The isolates from the four bacterial species examined were kept in TSB (Trypticase Soya Broth, Becton and Dickinson) with 10% glycerol at -70 °C and then subcultured on TSA (Trypticase Soya Agar, Becton and Dickinson) and TSB for 24 h at 37 °C former to inoculation. Bacterial isolates were then plated on sterile petri plates with 1 × 10^8 CFU/mL (0.5 McFarland turbidity) and 20 mL of Mueller Hinton Agar media (Oxoid) was then loaded. To ensure that the microorganisms were evenly dispersed, the plates were gently rotated before being left to harden on a level surface. Four equally spaced spherical-shaped wells (10 mm diameter) were painstakingly drilled using a sterilized cork bore after media solidification. All tested compounds under test underwent two-fold serial dilutions in a sequential manner. Three replications of 100 µL of each concentration were added to a well using a micropipette. Plates were then incubated for 24-hour at 37 °C. The average of the inhibition zones was then calculated. To determine the MICs, the natural logarithm of each diluted test substance’s concentration was plotted against the average area of the related inhibition zone. Following that, a regression line was created and the intercept on the ‘ln concentration” axis was determined, and the antilogarithm was calculated to indicate the MIC value[34],[63].

E. coli ATCC 25,922 = assay: Antibacterial screening, agar cup diffusion method; assay type: cell-based; details: Escherichia coli, ATCC25, Gram –ve strain; read-out: Minimum inhibitory concentrations (MIC, µM) E. coli ATCC 25,922
Method: as §7

[6] = test system: K. pneumoniae ATCC 10,031; assay: Antibacterial screening, agar cup diffusion method; assay type: cell-based; details: read-out: Minimum inhibitory concentrations (MIC, µM) K. pneumoniae ATCC 10,031
Method: as §7

[7] = test system: P. aeruginosa ATCC 27,853; assay: Antibacterial screening, agar cup diffusion method; assay type: cell-based; details: Pseudomonas aeruginosa, ATCC27; Gram –ve strain; read-out: Minimum inhibitory concentrations (MIC, µM) P. aeruginosa ATCC 27,853
Jurkat cells = details: cited from earlier work
normal cell line WI 38 = assay: MTT cytotoxicity assay on normal cells; assay type: cell-based; details: Homo sapiens; normal cell line WI 38, MTT assay, ± SEM; read-out: IC50 W138 normal cell line (µM ± SEM)
Method: After 24 h of culture incubation and supernatants discarded. […] Each test should include a blank containing complete medium without cells. […] Add reconstituted MTT in an amount equal to 10% of the culture medium volume. […] Spectrophotometrically absorbance was measured at a wavelength of 570 nm. […] Results from all experiments were recorded and the percentage of viable cells was calculated.

[8] = test system: melanoma LOX IMVI cell line; assay: Cell cycle analysis, propidium iodide flow cytometry; assay type: cell-based, human; details: LOX IMVI treated at IC50 concentration
Method: The effect of compound 3i on cell cycle progression of LOX IMVI cell line was evaluated using Propidium Iodide Flow Cytometry Kit to measure the DNA content according to the reported protocols. The LOX IMVI cells used in this work were obtained from the American Type Culture Collection. Cells were cultured in DMEM (Invitrogen/Life Technologies) supplemented with 10% FBS (Hyclone), 10 µg/ml insulin (Sigma), and 1% penicillin-streptomycin. The remaining chemicals and reagents were all from Sigma or Invitrogen. Growth media was removed, cells washed with warm PBS and aspirated. Adhered cells were detached from media by addition of 5 ml 10% trypsin/EDTA and incubated 2 min in the incubator. The suspended cells harvested, aspirated to a falcon tube, centrifuged at 2000 rpm for 5 min. Cell count performed after suspending the cells into a fresh media and stained with trypan blue, counted and used for preparation of the appropriate number of cells.

[9] = test system: melanoma LOX IMVI cell line; assay: Annexin V-FITC/PI apoptosis and necrosis assay; assay type: cell-based, human; details: LOX IMVI treated with IC50 concentration
Method: Following the manufacturer’s instructions, the Annexin V-FITC Apoptosis Detection Kit (Bio Vision Research Products, USA) was used to analyze cell apoptosis. Briefly, 500 µL of 1X Binding buffer was used to resuspend 1-5 × 10^5 cells that had been harvested by centrifugation. Propidium iodide (PI, 50 mg/ml) and Annexin V-FITC, each administered in 5 µL, were also added. The cells were first incubated for 5 minutes at room temperature in the dark before being analyzed using the Annexin V-FITC binding flow cytometric technique (Ex = 488 nm; Em = 530 nm) with a FITC signal detector (typically FL1) and PI staining with a phycoerythrin emission signal detector (typically FL2). Before exposing adherent cells to Annexin V-FITC, we gently trypsinized and gave them a single wash in serum-containing medium (A.3–5). Cell synchronisation is done using Double-thymidine synchronization method and the used Media is double modifed eagle media (DMEM).
Cell cycle analysis and detection of apoptosis
Annexin V-FITC apoptosis assay
Cell apoptosis were analyzed by the Annexin V-FITC Apoptosis Detection Kit (Bio Vision Research Products, USA). Thereafter, 1-5 x 10^5 cells were collected by centrifugation and resuspend in 500 μl of 1X Binding Buffer. Added 5 μl of Annexin V-FITC and 5 μl of propidium iodide (PI 50mg/ml, optional.). The cells incubated at room temperature for 5 min in the dark; Analyzed by Annexin V-FITC binding flow cytometric method (Ex = 488 nm; Em = 530 nm) using FITC signal detector (usually FL1) and PI staining by the phycoerythrin emission signal detector (usually FL2). For adherent cells, we gently trypsinized and washed cells once with serum-containing media before incubation with Annexin V-FITC (A.3-5). […]

Bax = assay: Western blot of protein expression in LOX IMVI cells; assay type: cell-based, human; details: control = 1
Method: (§6) To evaluate the expression level of the apoptosis modulatory markers Bax, caspase 3 and PARP-1, western blot was performed as formerly described. Three different groups of LOX IMVI cells were permitted to grow to reach 70–80% confluence in […] flasks. The first group of LOX IMVI cells was treated with compound 3i. […] The media was taken out after 48 h, and cells underwent three rounds of ice-cold PBS washing. RIPA lysis buffer [consisting of Tris-HCl pH 7.6 (25 mM), NaCl (150 mM), EDTA (5 mM), NP-40 or Triton X-100 (1%), sodium deoxycholate (1%), SDS1 (1%)] with the proper phosphatase and a protease inhibitor was used to create the whole-cell lysate for 30 min. After centrifuging the mixture at 12,000 rpm for 20 min and sonicating it for five minutes, the supernatant was collected, split into aliquots, and kept at -80 °C. The Biuret method was used to determine protein content[27],[28]. Proteins in each matched cell lysate were denatured in 2 Laemmli buffer containing 5% β--mercaptoethanol at 95 °C for 5 min. For SDS-PAGE electrophoresis, 20 µg of protein per lane were loaded at 100 volts through a 6% stacking gel, then at 125 volts through a 10% resolving gel for around 2 h, and then transferred to a PVDF membrane using a semidry transfer apparatus (made by Cleaver Scientific) for 25 min. The PVDF membrane was first incubated for one hour at 4 °C in TBS buffer containing 0.1% Tween (TBST) and 5% fat-free milk, then overnight at 4 °C with monoclonal anti-Bax, anti-PARP-1, and anti-caspase-3 as primary antibodies (Cell Signalling Technology) at a dilution of 1:500. Membranes were first treated overnight, then three times washed in TBST buffer, then incubated at room temperature for 60 min with the corresponding HRP (horse radish peroxidase)-linked secondary antibodies (Dako). Then the substrate for the chemiluminescent Western ECL (Perkin Elmer, Waltham, MA) was added to the blot as described by the manufacturer by incubating the membranes with equal volumes of ECL solution A and ECL solution B for 1 min.

PARP-1 = assay: as above; assay type: cell-based, human; details: control = 1
Method: as §6

active caspase-3 = assay: as above; assay type: cell-based, human; details: control = 1
Method: as §6

human melanoma LOX IMVI [10] = assay: cells
[11] = test system: A498 renal cancer cell line; assay: cells; details: Homo sapiens
[12] = test system: A549 lung cancer cell line; set-up: method as in PMID 27614408; details: cited from earlier work

T2 sequence (Q02880 whole entry): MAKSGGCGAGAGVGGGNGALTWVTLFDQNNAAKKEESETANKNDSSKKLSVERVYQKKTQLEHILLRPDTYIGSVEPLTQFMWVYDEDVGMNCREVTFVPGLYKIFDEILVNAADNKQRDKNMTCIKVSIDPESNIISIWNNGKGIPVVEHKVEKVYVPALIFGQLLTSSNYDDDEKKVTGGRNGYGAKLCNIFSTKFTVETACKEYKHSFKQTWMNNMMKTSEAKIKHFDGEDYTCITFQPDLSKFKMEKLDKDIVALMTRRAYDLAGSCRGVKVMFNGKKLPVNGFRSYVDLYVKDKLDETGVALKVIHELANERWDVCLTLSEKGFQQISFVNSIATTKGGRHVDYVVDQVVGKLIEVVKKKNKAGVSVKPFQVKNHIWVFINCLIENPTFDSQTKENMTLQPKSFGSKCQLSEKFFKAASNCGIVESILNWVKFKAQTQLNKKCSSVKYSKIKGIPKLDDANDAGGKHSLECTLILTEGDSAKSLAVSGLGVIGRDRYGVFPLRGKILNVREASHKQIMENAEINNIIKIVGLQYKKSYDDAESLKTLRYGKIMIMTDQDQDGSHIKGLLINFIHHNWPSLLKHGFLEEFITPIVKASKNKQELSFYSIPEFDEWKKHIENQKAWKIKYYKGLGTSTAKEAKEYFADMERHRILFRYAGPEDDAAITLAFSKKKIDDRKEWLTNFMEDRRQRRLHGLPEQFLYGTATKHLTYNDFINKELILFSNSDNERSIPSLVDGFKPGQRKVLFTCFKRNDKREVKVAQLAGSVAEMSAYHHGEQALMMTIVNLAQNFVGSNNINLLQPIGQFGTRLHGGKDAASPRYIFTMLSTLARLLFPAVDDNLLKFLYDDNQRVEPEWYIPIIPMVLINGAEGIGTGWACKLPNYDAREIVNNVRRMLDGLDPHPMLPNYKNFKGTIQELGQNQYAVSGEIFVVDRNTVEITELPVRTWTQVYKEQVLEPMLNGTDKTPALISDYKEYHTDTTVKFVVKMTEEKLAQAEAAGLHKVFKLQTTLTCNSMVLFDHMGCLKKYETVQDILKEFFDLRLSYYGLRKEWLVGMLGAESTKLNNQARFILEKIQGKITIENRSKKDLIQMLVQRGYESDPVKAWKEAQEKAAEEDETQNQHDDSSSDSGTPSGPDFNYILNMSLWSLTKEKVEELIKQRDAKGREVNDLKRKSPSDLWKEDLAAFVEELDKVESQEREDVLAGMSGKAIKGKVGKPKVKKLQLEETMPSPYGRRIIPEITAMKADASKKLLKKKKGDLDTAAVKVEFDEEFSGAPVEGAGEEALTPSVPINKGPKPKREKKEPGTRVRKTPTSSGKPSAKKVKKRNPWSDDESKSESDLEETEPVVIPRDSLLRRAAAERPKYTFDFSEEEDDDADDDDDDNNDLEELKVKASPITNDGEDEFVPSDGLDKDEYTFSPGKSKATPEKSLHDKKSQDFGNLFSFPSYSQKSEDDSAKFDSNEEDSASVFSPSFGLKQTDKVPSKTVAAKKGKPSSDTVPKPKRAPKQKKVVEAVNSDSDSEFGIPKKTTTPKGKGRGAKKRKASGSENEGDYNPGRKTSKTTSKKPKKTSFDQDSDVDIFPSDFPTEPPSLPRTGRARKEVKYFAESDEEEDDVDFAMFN

For `Cc1ccc(C(=O)CN2C(=O)S/C(=C\C3=C(Cl)c4cc(C)c(C)cc4CCC3)C2=O)cc1` [IV], the IC50 [1] is given as 1.91 ± 0.03 µM and the IC50 [2] is given as 13.39 ± 0.04 µM.
`N.N.[Cl][Pt][Cl]` [Cisplatin, reference compound] gave an IC50 (topoisomerase Iα) of 5.71 ± 0.31 µM, an IC50 (topoisomerase IIβ; ± SEM, read-out: Topoisomerase II IC50 µM ± SEM) of 11.3 ± 0.62 µM and an IC50 (human melanoma LOX IMVI [3]) of 5.07 ± 0.29 µM. The IC50 [4] was 7.92 ± 0.45 µM.
In the case of `O=C(CN1C(=O)S/C(=C\c2cc(-c3ccc(Cl)cc3)c3[nH]c4ccccc4c3c2)C1=O)N1CCOCC1` [VI], the IC50 [5] is listed as 0.97 ± 0.13 µM.
`O=C(O)c1cn(C2CC2)c2cc(N3CCNCC3)c(F)cc2c1=O` [Ciprofloxacin, reference compound] gave an MIC (S. aureus ATCC 6538) of 5.49 µM, an MIC (E. coli ATCC 25,922) of 0.04 µM (≈ 0.0133 µg/mL) and an MIC ([6]; Gram –ve strain) of 0.10 µM (≈ 0.0331 µg/mL). For the same molecule, the MIC ([6]; Klebsiella pneumoniae, ATCC10, Gram –ve strain) was 0.1 µM (≈ 0.0331 µg/mL), the MIC [7] was 0.06 µM (≈ 0.0199 µg/mL) and the “effect on proliferation of Jurkat cells” value (Jurkat cells; concentration of 25 µg/mL) was “inhibit the proliferation”. The “apoptosis in Jurkat cells” value (Jurkat cells; doses higher than 80 µg/mL) was “induced apoptosis”.
For `COc1cccc2c1C(=O)c1c(O)c3c(c(O)c1C2=O)C[C@@](O)(C(=O)CO)C[C@@H]3O[C@H]1C[C@H](N)[C@H](O)[C@H](C)O1` [Doxorubicin, reference compound], the IC50 (normal cell line WI 38) was 18.1 ± 0.98 µM, the IC50 (topoisomerase IIβ) was 6.49 ± 0.35 µM and the “%G0-G1 DNA content” value [8] was 37.85%. For the same molecule, the “%G2/M DNA content” value [8] was 5.94%, the “%Pre-G1 DNA content” value [8] was 46.29% and the “%S DNA content” value [8] was 56.21%. The “Apoptosis Early” value [9] was 1.94%, the “Apoptosis Late” value [9] was 28.53% and the “Apoptosis Total” value [9] was 46.29%. The Necrosis [9] was 15.82%, the “Bax OD” value (Bax) was 6.56 and the “PARP-1 OD” value (PARP-1) was 0.38. The “Caspace-3 Optical density (OD)” value (active caspase-3) was 5.67, the viability at 0.4 µM (human melanoma LOX IMVI [10]) was 70.4% and the viability at 1.6 µM (human melanoma LOX IMVI [10]) was 58.2%. The viability at 25 µM (human melanoma LOX IMVI [10]) was 42.6%, the viability at 100 µM (human melanoma LOX IMVI [10]) was 30.4% and the IC50 (human melanoma LOX IMVI [10]; read-out: In vitro cytotoxicity (IC50) LOX IMVI (µM ± SEM)) was 7.03 ± 0.4 µM. For the same molecule, the viability at 0.4 µM ([11]; A498) was 64.5%, the viability at 1.6 µM ([11]; A498) was 55.3% and the viability at 25 µM ([11]; A498) was 37.6%. It also gave a viability at 100 µM ([11]; A498) of 26.6% and an IC50 ([11]; A498, read-out: In vitro cytotoxicity (IC50) A498 cell line (µM ± SEM)) of 3.59 ± 0.2 µM.
In the case of `Cn1c(/C=C2\SC(=O)N(CC(=O)Nc3nc(-c4ccccc4)cs3)C2=O)nc2ccccc21` [V], the IC50 [12] is listed as 11.5 ± 1.46 µM.
